Laboratory results taken from patent US10017741B2, “Compositions and methods for obtaining enriched mesenchymal stem cell cultures” (StemCell Technologies Inc., priority 2013, dated 2018).
Values joined by “and” are separate entries in the source; they are usually repeats but may differ in a detail not shown here. Identical values can stand only once. “Also recorded” adds a separate entry of the source.

Legend:
[1] = tested on: CB-derived cultures (macrophage contamination, MSC morphology); test: Images of CB-derived expansion cultures; assay type: cell-based, mouse; conditions: for macrophage contamination and MSC enrichment (images): CB
Experimental: (§1) c. Expansion of Human BM and Mouse BM and CB-Derived Cells Assay • 1. […] Cultures were allowed to grow for 10-14 days until adherent cells achieved 70 to 80% confluence. Mouse cultures were maintained under normal (5% CO2) or hypoxic conditions (5% CO2/5% O2) at 37 C in a cell culture incubator. Human cultures were maintained under 5% CO2 at 37 C in a humidified cell culture incubator. • 3. Adherent cells were passaged by releasing cultures from flask. Cultures were washed with 5 mL PBS and then 5 mL of 0.25% trypsin solution ([…] catalogue #07901) was added and the flasks incubated for 10 min at 37 C. To each flask, 5 mL complete medium was added to stop trypsin activity. • 4. Released cells were collected into a tube and centrifuged at 300×g for 5 minutes. • 5. Cells were resuspended in 2 mL of medium and counted using a hemocytometer. • 6. […] P1 cultures were incubated until they reached 70 to 80% confluence. • 8. Passaged cultures can be used at any time from P0 to P10 as needed for different applications.

[2] = tested on: BM-derived cultures (CD45+/CD11b+ macrophages, Sca1+ monocytes); test: Flow cytometry of BM-derived expansion cultures; assay type: cell-based, mouse
Experimental: as §1
(§2) d. Flow Cytometry Analysis • 1. Cultures of BM and CB-derived cells were trypsinized for 10 minutes and an equal volume of complete medium was added to cultures to stop trypsin activity • 2. Cell suspension was filtered through a 40 μm strainer, and cells counted using a hemocytometer • 3. Suspension was spun down at 300×g for 5 minutes. • 4. Supernatant was removed and cell pellet resuspended in FACS buffer (PBS with 2% FBS and 1 mM EDTA) • 5. A total of 1×10^5 cells in 300 μL FACS buffer was used for each flow cytometry analysis tube, including unstained, viability, compensation, and isotype controls. • 6. Cell suspensions were stained with fluorophore-labeled antibodies against CD45, CD11b, and Sca1, CD29, and viability dye. • 7. Cell suspensions were analyzed on a flow cytometer using compensation and isotype control to determine laser voltage and gating. • 8. Samples were gated on viable CD45^+ cells and 10,000 events per sample were collected. Alternatively, cells were gated on viable CD45^− cells and out of this gate the proportion of CD29+/Sca1^+ cells obtained.

[3] = tested on: CSF-1-independent cell line, human fibroblasts, and other endothelial cells; conditions: cited from earlier work
mouse myeloid cells = conditions: at 700 nM; cited from earlier work
[4] = tested on: BM-derived cultures (macrophage contamination, MSC morphology); test: Images of BM-derived expansion cultures; assay type: cell-based, mouse; conditions: for macrophage contamination and MSC enrichment (images): BM
Experimental: as §1

[5] = tested on: CB-MSCs (CD45−/CD29+/Sca1+); test: Total cell count with flow cytometry, CB-MSC cultures; assay type: cell-based, mouse
Experimental: as §2
Prior to flow cytometry, control and GW2580-treated cultures of BM- and CB-MSC were dissociated from tissue culture flasks by trypsinization and the total number of cells counted with the aid of a hemocytometer. Flow cytometry analysis was performed and the ratio of CD45^− cells and CD45^−/CD29^+/Sca1^+ cells applied to the total number of cells to obtain the actual number of these cells in culture (Table 2).

mouse BM-MSC cultures = test: Osteogenic and adipogenic differentiation of mouse BM-MSC; assay type: cell-based
Experimental: During the process of culture, expansion, or maintenance of MSCs, it is imperative that these cells maintain their functional properties so they can be used for specific downstream applications, including characterization by differentiation. […] BM-MSCs that were initially exposed to vehicle- or GW2580-containing media were plated at 3 different densities (FIG. 18A) in MesenCult Proliferation Medium and allowed to adhere to the plates overnight. Cultures were then differentiated for 14 days in MesenCult Osteogenic Medium, and the medium changed every 3 days. Osteogenic cultures were then fixed and stained for alkaline phosphates (ALP) activity (red areas) and mineralization (black areas). In control cultures ([…]), a modest differentiation into the osteogenic lineage was only observed when cultures were seeded at the highest density of 1.2×10^5 cells/cm^2. […] Cultures were then differentiated for 14 days into the adipogenic and osteogenic lineages (FIG. 18B).

[6] = CB-MSCs, 2.5 uM GW2580, 14 days during P0

For COc1ccc(COc2ccc(Cc3cnc(N)nc3N)cc2OC)cc1 [GW2580, 5-(3-Methoxy-4-((4-methoxybenzyl)oxy)benzyl)pyrimidine-2,4-diamine], the “macrophage contamination and MSC enrichment (images)” value ([1]; 1 μM continuous P0-P3) was “have reduced numbers of macrophages; also recorded: contain a much reduced number of these contaminating macrophages”, the “macrophage contamination and MSC enrichment (images)” value ([1]; 1 μM, P2) was “a much reduced number of macrophages is observed; also recorded: enriched and mostly devoid of macrophage contamination” and the “macrophage contamination and MSC appearance (images)” value ([1]; CB, 1, 5 and 10 μM) was “have reduced numbers of contaminating macrophages; also recorded: a noticeable decrease in macrophages was noticed”. The “number of CD45+/CD11b+/Sca1+ cells” value ([2]; BM, 1 μM) was 55%, the “number of CD45+ cells” value ([2]; BM, 1 μM (control 52%)) was 45% and the “CD11b+/Sca1+ hematopoietic monocytes, of CD45+ cells” value ([2]; BM, 1 μM P0 to P2) was 44%. For the same compound, the “CD11b+/Sca1− mature macrophages, of CD45+ cells” value ([2]; BM, 1 μM P0 to P2) was 56%, the “overall reduction in CD45+ cells” value ([2]; BM, 1 μM P0 to P2) was 18% and the “reduction in CD45+/CD11b+/Sca1+ monocyte differentiation into mature macrophage (increase in Sca1+ fraction vs control)” value ([2]; BM, 1 μM P0 to P2) was 36%. For the same compound, the “CD11b+/Sca1+ hematopoietic monocytes, of CD45+ cells” value ([2]; BM, 1 μM P0 to P3) was 52%, the “CD11b+/Sca1− mature macrophages, of CD45+ cells” value ([2]; BM, 1 μM P0 to P3) was 41% and the “overall reduction in CD45+ cells” value ([2]; BM, 1 μM P0 to P3) was 64%. For the same compound, the “reduction in CD45+/CD11b+/Sca1+ monocyte differentiation into macrophages (monocytes prevented from differentiating)” value ([2]; BM, 1 μM P0 to P3) was > 50% and 52%, the “reduction in CD45+/CD11b+/Sca1− mature macrophage differentiation” value ([2]; BM, 1 μM, at P3) was greater than 50% and the “number of CD45+/CD11b+/Sca1+ cells” value ([2]; BM, 5 μM) was 40%. For the same compound, the “number of CD45+ cells” value ([2]; BM, 5 μM (control 52%)) was 33%, the “number of CD45+/CD11b+/Sca1+ cells” value ([2]; BM, 10 μM) was 34% and the “number of CD45+ cells” value ([2]; BM, 10 μM (control 52%)) was 28%. For the same compound, the “CD45+/CD11b+ mature macrophages, of total viable cells” value ([2]; BM, P1, 1 μM) was 60% and 62%, the “reduction in macrophages vs control” value ([2]; BM, P1, 1 μM) was 20% and the “CD45+/CD11b+ mature macrophages, of viable cells” value ([2]; BM-derived cultures, 1 μM up to P2) was less than 1%. The “sensitivity of CSF-1-independent cell line, human fibroblasts and other endothelial cells to GW2580” value [3] was “highly resistant”, the “inhibition of CSF-1-dependent growth of mouse myeloid cells” value (mouse myeloid cells) was “completely inhibited” and the “macrophage contamination and MSC enrichment (images)” value ([4]; 1 μM continuous P0-P3) was “have reduced numbers of macrophages; also recorded: contain a much reduced number of these contaminating macrophages”. The “macrophage contamination and MSC enrichment (images)” value ([4]; 1 μM, P2) was “a much reduced number of macrophages is observed; also recorded: enriched and mostly devoid of macrophage contamination”, the “macrophage contamination and MSC appearance (images)” value ([4]; BM, 1, 5 and 10 μM) was “have reduced numbers of contaminating macrophages; also recorded: a noticeable decrease in macrophages was noticed” and the “increase in number of CD45−/CD29+/Sca1+ MSCs vs control” value ([5]; CB-MSC, 2.5 uM GW2580) was 310%. For the same compound, the “Actual number of cells, CD45−” value [5, 6] was 530,702, the “Actual number of cells, CD45−/CD29+/Scal+” value [5, 6] was 507,616 and the “CD45−, Percent (Flow Cytometry)” value [5, 6] was 95.45%. For the same compound, the total cells [5, 6] was 5.56E+05, the “CD45−/CD29+/Scal+, Percent (Flow Cytometry)” value ([5]; CB-MSCs, 2.5 uM GW2580, 14 days during P0, out of CD45− gate) was 95.65% and the “osteogenic differentiation (ALP activity, mineralization)” value (mouse BM-MSC cultures; BM-MSC, 1 uM for 2 passages, seeded at 4.0×10^4 cells/cm^2, 14 days) was “a significant and robust increase in osteogenic differentiation”. For the same compound, the “adipogenic and osteogenic differentiation (Oil Red O, ALP/mineralization)” value (mouse BM-MSC cultures; BM-MSC, 2.5 uM for 2 passages, plated at 4.0×10^4 cells/cm^2, 14 days) was “substantial adipogenic and osteogenic differentiation” and the “differentiation into osteogenic and adipogenic lineages vs control cultures” value (mouse BM-MSC cultures; mouse BM-MSC exposed to GW2580 during expansion) was “stronger and more robust differentiation”.
